Laboratory results published in patent publication US20260000676A1, “CHROMAN DERIVATIVES AS ESTROGEN RECEPTOR DEGRADERS” (THE REGENTS OF THE UNIVERSITY OF MICHIGAN, priority 2022, published 2026).
Where a name gives a salt, the structure may show the parent alone.

How the values were obtained:
ER [1] = molecular target: T1, ER (Homo sapiens (Human), UniProt P03372); assay: In-cell western (ICW) ER degradation assay in MCF-7 cells; format: cell-based; conditions: MCF7, 16 hrs; for DC50: ER degradation; for Dmax: MCF7, maximal ER degradation; for MCF7 Dmax %: maximal ER degradation
T1 sequence (P03372 whole entry): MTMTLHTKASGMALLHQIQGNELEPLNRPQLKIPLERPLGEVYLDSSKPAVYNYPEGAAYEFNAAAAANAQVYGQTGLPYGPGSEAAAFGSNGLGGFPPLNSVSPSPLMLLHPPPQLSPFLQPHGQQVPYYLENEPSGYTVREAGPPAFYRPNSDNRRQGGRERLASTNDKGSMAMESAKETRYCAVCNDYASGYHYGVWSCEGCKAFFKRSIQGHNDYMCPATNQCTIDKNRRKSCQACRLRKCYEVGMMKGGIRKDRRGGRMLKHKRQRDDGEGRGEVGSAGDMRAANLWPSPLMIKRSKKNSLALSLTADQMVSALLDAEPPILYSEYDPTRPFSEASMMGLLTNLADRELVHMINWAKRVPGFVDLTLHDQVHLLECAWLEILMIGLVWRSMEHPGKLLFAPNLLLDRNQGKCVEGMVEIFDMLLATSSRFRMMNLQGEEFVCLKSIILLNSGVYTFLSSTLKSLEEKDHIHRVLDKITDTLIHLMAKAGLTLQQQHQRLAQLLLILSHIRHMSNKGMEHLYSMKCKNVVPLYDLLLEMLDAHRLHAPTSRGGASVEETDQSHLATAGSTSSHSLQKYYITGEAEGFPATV

CRBN/DDB1 = CRBN/DDB1 (Homo sapiens (Human), UniProt Q96SW2); assay: HTRF binding assay to CRBN/DDB1; conditions: read-out: CRBN HTRF IC50
Chain of CRBN/DDB1 (Q96SW2 whole entry): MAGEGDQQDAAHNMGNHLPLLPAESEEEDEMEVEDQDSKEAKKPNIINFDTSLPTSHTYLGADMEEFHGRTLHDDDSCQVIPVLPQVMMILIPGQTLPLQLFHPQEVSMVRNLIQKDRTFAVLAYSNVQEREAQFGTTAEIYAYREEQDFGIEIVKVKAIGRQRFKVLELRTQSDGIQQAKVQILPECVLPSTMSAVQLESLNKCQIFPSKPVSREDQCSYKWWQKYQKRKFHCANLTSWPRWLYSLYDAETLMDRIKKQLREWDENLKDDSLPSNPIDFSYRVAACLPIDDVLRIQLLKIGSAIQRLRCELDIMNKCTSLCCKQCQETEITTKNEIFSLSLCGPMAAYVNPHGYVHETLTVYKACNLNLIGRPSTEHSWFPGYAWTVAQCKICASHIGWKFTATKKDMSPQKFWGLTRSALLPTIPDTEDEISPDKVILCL
Chain of CRBN/DDB1 (Q16531 whole entry partner): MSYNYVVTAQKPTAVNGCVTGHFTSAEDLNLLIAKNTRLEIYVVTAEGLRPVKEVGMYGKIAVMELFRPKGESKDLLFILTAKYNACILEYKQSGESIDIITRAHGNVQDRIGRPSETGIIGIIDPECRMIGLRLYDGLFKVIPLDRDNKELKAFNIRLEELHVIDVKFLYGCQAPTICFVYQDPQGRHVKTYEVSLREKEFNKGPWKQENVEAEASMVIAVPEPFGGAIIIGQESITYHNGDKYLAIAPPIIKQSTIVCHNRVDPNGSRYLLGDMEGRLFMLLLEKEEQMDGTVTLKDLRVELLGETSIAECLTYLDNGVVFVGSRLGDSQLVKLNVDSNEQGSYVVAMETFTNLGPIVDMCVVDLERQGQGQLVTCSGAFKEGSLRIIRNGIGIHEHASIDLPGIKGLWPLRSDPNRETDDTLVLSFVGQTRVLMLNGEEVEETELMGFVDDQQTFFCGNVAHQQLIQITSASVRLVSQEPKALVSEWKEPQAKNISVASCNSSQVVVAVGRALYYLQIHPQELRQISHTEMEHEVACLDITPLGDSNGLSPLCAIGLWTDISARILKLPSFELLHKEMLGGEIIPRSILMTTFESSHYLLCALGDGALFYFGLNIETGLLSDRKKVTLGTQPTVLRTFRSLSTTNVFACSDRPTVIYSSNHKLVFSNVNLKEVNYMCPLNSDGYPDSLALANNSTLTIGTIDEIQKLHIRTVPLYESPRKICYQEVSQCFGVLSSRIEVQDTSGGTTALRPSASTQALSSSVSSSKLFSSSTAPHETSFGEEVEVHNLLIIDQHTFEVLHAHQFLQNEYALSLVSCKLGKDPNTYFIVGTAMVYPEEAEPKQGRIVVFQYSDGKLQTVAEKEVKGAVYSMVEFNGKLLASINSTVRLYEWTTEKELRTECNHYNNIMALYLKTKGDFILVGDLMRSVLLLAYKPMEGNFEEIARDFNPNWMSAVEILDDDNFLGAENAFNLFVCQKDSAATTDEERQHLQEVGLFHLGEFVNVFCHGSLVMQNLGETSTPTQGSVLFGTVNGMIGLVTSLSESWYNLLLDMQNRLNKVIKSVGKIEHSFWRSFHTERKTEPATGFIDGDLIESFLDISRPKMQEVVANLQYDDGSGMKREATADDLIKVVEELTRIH
Description: The binding potency was determined using HTRF assay technology (Perkin Elmer). Compounds were serially diluted in DMSO and 0.2 μL volume was transferred to white 384-well plate.

ER [2] = molecular target: T1, ER; assay: In-cell western (ICW) ER degradation assay in T47D cells; format: cell-based; conditions: 16 hrs; for DC50: ER degradation; for Dmax / T47D Dmax %: maximal ER degradation

Compound | DC50 (ER [1]) | Dmax (ER [1]) | IC50 (CRBN/DDB1) | DC50 (ER [2]) | Dmax (ER [2]) | Dmax (ER [2]; given as number) | MCF7 Dmax % (ER [1]) | T47D Dmax % (ER [2])
O=C1CCC(N2Cc3c(ccc4c3OC[C@H]3CN(CC5CCN(c6ccc([C@@H]7c8ccc(O)cc8OC[C@@H]7c7ccccc7)cn6)CC5)CCN43)C2=O)C(=O)N1 (single isomer, unassigned) [Compound A69] | 1 to 10 nM | < 25% | 50 to 500 nM | 1 to 10 nM | 25 to 50% | – | – | –
O=C1CCN(c2ccc(N3CCC4(CC3)CC(CN3CCN(c5ccc([C@H]6c7ccc(O)cc7OC[C@H]6c6ccccc6)cc5)CC3)C4)cc2)C(=O)N1 (single isomer, unassigned) [Compound A107] | 1 to 10 nM | 25 to 50% | > 5000 nM | < 1 nM | 25 to 50% | – | – | –
COc1cc(N2CCC(CN3CCC4(CC3)COc3c4ccc4c3CN(C3CCC(=O)NC3=O)C4=O)CC2)ccc1[C@H]1c2ccc(O)cc2OC[C@H]1c1ccccc1 (stereo partly drawn) [Compound A135, 3-(1′-((1-(4-((3R,4S)-7-hydroxy-3-phenylchroman-4-yl)-3-methoxyphenyl)piperidin-4-yl)methyl)-6-oxo-6,8-dihydro-2H,7H-spiro[furo[2,3-e]isoindole-3,4′-piperidin]-7-yl)piperidine-2,6-dione] | < 1 nM | 25 to 50% | < 50 nM | < 1 nM | 25 to 50% | – | – | –
O=C1CC[C@@H](Nc2ccc(C3CCN(C[C@@H]4COC5(CCN(c6ccc([C@H]7c8ccc(O)cc8OC[C@H]7c7ccccc7)cc6)CC5)C4)CC3)c(F)c2)C(=O)N1 (mixture of isomers) [Compound A162, 3-((3-fluoro-4-(1-(((R)-8-(4-((3RS, 4SR)-7-hydroxy-3-phenylchroman-4-yl)phenyl)-1-oxa-8-azaspiro[4.5]decan-3-yl)methyl)piperidin-4-yl)phenyl)amino)piperidine-2,6-dione] | < 1 nM | 25 to 50% | < 50 nM | < 1 nM | ≥ 75% | – | – | –
O=C1CC[C@@H](N2Cc3cc4c(cc3C2=O)OC[C@H]2CN(C[C@@H]3COC5(CCN(c6ccc([C@H]7c8ccc(O)cc8OC[C@H]7c7ccccc7)cc6F)CC5)C3)CCN42)C(=O)N1 [Compound A160, (R)-3-((R)-3-(((R)-8-(2-fluoro-4-((3R,4S)-7-hydroxy-3-phenylchroman-4-yl)phenyl)-1-oxa-8-azaspiro[4.5]decan-3-yl)methyl)-8-oxo-1,2,3,4,4a,5,8,10-octahydro-9H-pyrazino[1′,2′:4,5][1,4]oxazino[2,3-f]isoindol-9-yl)piperidine-2,6-dione] | 1 to 10 nM | < 25% | 500 to 5000 nM | 1 to 10 nM | 25 to 50% | – | – | –
COc1cc(N2CCC(CN3CCN4c5cc6c(cc5OC[C@H]4C3)C(=O)N(C3CCC(=O)NC3=O)C6)CC2)ccc1[C@@H]1c2ccc(O)cc2OC[C@@H]1c1ccccc1 (single isomer, unassigned) [Compound A84, 3-((R)-3-((1-(4-((3S,4R)-7-hydroxy-3-phenylchroman-4-yl)-3-methoxyphenyl)piperidin-4-yl)methyl)-8-oxo-1,2,3,4,4a,5,8,10-octahydro-9H-pyrazino[1′,2′:4,5][1,4]oxazino[2,3-f]isoindol-9-yl)piperidine-2,6-dione] | < 1 nM | – | 500 to 5000 nM | < 1 nM | – | – | – | –
COc1nc(C(=O)NC2CCC(=O)NC2=O)ccc1N1CCN(CC2CCC3(CC2)CN(c2ccc([C@@H]4c5ccc(O)cc5OC[C@@H]4c4ccccc4)cc2)C3)CC1 (single isomer, unassigned) [Compound A108] | 1 to 10 nM | 50 to 75% | 500 to 5000 nM | < 1 nM | ≥ 75% | 76.3% | – | –
COC[C@H](C(=O)N1Cc2cc3c(cc2C1)C(=O)N(C1CCC(=O)NC1=O)C3)N1CCC2(CCN(c3ccc([C@@H]4c5ccc(O)cc5OC[C@@H]4c4ccccc4)cc3)CC2)CC1 (single isomer, unassigned) [Compound A60] | < 1 nM | 25 to 50% | 50 to 500 nM | 1 to 10 nM | < 25% | – | – | –
O=C1CCN(c2ccc(N3CCC4(CC3)CC(CN3CCN(c5ccc([C@@H]6c7ccc(O)cc7OC[C@@H]6c6ccccc6)cc5)CC3)C4)cc2)C(=O)N1 [Compound A112, 1-(4-(2-((4-(4-((3S,4R)-7-hydroxy-3-phenylchroman-4-yl)phenyl)piperazin-1-yl)methyl)-7-azaspiro[3.5]nonan-7-yl)phenyl)dihydropyrimidine-2,4(1H,3H)-dione] | > 100 nM | < 25% | > 5000 nM | 1 to 10 nM | < 25% | – | – | –
Cn1c(=O)n(C2CCC(=O)NC2=O)c2ccc(C3CCN(CC4CC5(CCN(c6ccc([C@@H]7c8ccc(O)cc8OC[C@@H]7c7ccccc7)cc6)CC5)C4)CC3)cc21 (single isomer, unassigned) [Compound A73] | < 1 nM | 50 to 75% | < 50 nM | < 1 nM | 50 to 75% | – | – | –
COc1cc(N2CCC3(CC2)CC(CN2CCC4(CC2)COc2c4ccc4c2CN(C2CCC(=O)NC2=O)C4=O)C3)c(F)cc1[C@H]1c2ccc(O)cc2OC[C@H]1c1ccccc1 (stereo partly drawn) [Compound A131, 3-(1′-((7-(2-fluoro-4-((3R,4R)-7-hydroxy-3-phenylchroman-4-yl)-5-methoxyphenyl)-7-azaspiro[3.5]nonan-2-yl)methyl)-6-oxo-6,8-dihydro-2H,7H-spiro[furo[2,3-e]isoindole-3,4′-piperidin]-7-yl)piperidine-2,6-dione] | 1 to 10 nM | – | < 50 nM | 1 to 10 nM | – | – | B (“B”: >50% and <75%) | B (“B”: >50% and <75%)
O=C1CCC(N2Cc3c(ccc4c3OC[C@H]3CN(CC5CC6(CCN(c7ccc([C@@H]8c9ccc(O)cc9OC[C@@H]8c8ccccc8)cn7)CC6)C5)CCN43)C2=O)C(=O)N1 (single isomer, unassigned) [Compound A65] | 1 to 10 nM | – | 50 to 500 nM | 1 to 10 nM | – | – | D (“D”; <25%) | C (“C”: 25%-50%)
O=C1CCC(N2C(=O)c3cc4c(cc3C2=O)CN(C(=O)CN2CC3(CCN(c5ccc([C@H]6c7ccc(O)cc7OC[C@H]6c6ccccc6)cc5)CC3)C2)C4)C(=O)N1 (single isomer, unassigned) [Compound A55, formate] | > 100 nM | < 25% | 500 to 5000 nM | > 100 nM | < 25% | – | – | –
O=C1CCC(Nc2ccc(C3CCN(CC4CCN(c5ccc([C@@H]6c7ccc(O)cc7OC[C@@H]6c6ccccc6)cc5)CC4)CC3)c(F)c2)C(=O)N1 (single isomer, unassigned) [Compound A72] | > 100 nM | < 25% | 50 to 500 nM | < 1 nM | 25 to 50% | – | – | –
O=C1CCC(NC(=O)c2ccc(N3CCN(CC4CCN(c5ccc([C@@H]6c7ccc(O)cc7OC[C@@H]6c6ccccc6)cc5)CC4)CC3)cn2)C(=O)N1 (single isomer, unassigned) [Compound A88] | 1 to 10 nM | 50 to 75% | > 5000 nM | 1 to 10 nM | 50 to 75% | – | – | –
O=C1CCC(N2C(=O)c3cc4c(cc3C2=O)CN(C(=O)CN2CCC3(CC2)CCN(c2ccc([C@H]5c6ccc(O)cc6OC[C@H]5c5ccccc5)cc2)CC3)C4)C(=O)N1 (single isomer, unassigned) [Compound A54, formate] | 10 to 100 nM | 25 to 50% | 500 to 5000 nM | 1 to 10 nM | ≥ 75% | – | – | –
O=C1CC[C@H](N2Cc3c(ccc4c3OC[C@H]3CN(CC5CC6(CCN(c7ccc([C@@H]8c9ccc(O)cc9OC[C@@H]8c8ccccc8)cc7)CC6)C5)CCN43)C2=O)C(=O)N1 (single isomer, unassigned) [Compound A90] | 1 to 10 nM | – | > 5000 nM | < 1 nM | 50 to 75% | – | B (“B”: >50% and <75%) | –
O=C1CC[C@H](N2Cc3c(ccc4c3OC[C@H]3CN(C[C@@H]5COC6(CCN(c7ccc([C@@H]8c9ccc(O)cc9OC[C@@H]8c8ccccc8)cc7F)CC6)C5)CCN43)C2=O)C(=O)N1 (single isomer, unassigned) [Compound A157] | < 1 nM | 50 to 75% | < 50 nM | < 1 nM | ≥ 75% | – | – | –
O=C1CCC(Nc2ccc3c(c2)OC[C@H]2CN(CC4CCN(c5ccc([C@@H]6c7ccc(O)cc7OC[C@@H]6c6ccccc6)cc5)CC4)CCN32)C(=O)N1 (single isomer, unassigned) [Compound A91, hydrochloride] | 1 to 10 nM | – | > 5000 nM | 1 to 10 nM | – | – | – | –
O=C1CC[C@@H](N2Cc3cc4c(cc3C2=O)OC[C@@H]2CN(C[C@@H]3COC5(CCN(c6ccc([C@H]7c8ccc(O)cc8OC[C@H]7c7ccccc7)cc6)CC5)C3)CCN42)C(=O)N1 [Compound A151, (R)-3-((S)-3-(((R)-8-(4-((3R,4S)-7-hydroxy-3-phenylchroman-4-yl)phenyl)-1-oxa-8-azaspiro[4.5]decan-3-yl)methyl)-8-oxo-1,2,3,4,4a,5,8,10-octahydro-9H-pyrazino[1′,2′:4,5][1,4]oxazino[2,3-f]isoindol-9-yl)piperidine-2,6-dione] | < 1 nM | 50 to 75% | 50 to 500 nM | < 1 nM | 50 to 75% | – | – | –
COc1cccc([C@H]2COc3cc(O)ccc3[C@H]2c2ccc(N3CCC(CN4CCN5c6ccc7c(c6OC[C@H]5C4)CN(C4CCC(=O)NC4=O)C7=O)CC3)cc2)c1 (single isomer, unassigned) [Compound A33] | 1 to 10 nM | – | < 50 nM | 1 to 10 nM | – | – | – | –
O=C1CCC(N2C(=O)c3cc4c(cc3C2=O)CN(C(=O)C2CCN(C3CCN(c5ccc([C@@H]6c7ccc(O)cc7OC[C@@H]6c6ccccc6)cc5)CC3)CC2)C4)C(=O)N1 (single isomer, unassigned) [Compound A79] | < 1 nM | ≥ 75% | 500 to 5000 nM | < 1 nM | ≥ 75% | – | – | –
